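Briefly, cells in 96-well plates were exposed to five compound concentrations for 48 h, and endpoints were estimated by linear interpolation. TGI marks complete inhibition of growth.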
What was measured:
Experiment in all cases: NCI-60 cell line screen, 48 h
786-0 renal = system: 786-0 renal
A498 renal = system: A498 renal
A549 NSCLC = system: A549 NSCLC
ACHN renal = system: ACHN renal
BT-549 breast = system: BT-549 breast
CAKI-1 renal = system: CAKI-1 renal
CCRF-CEM leukemia = system: CCRF-CEM leukemia
COLO 205 colon = system: COLO 205 colon
DU-145 prostate = system: DU-145 prostate
EKVX NSCLC = system: EKVX NSCLC
HCT-116 colon = system: HCT-116 colon
HCT-15 colon = system: HCT-15 colon
HL-60(TB) leukemia = system: HL-60(TB) leukemia
HOP-62 NSCLC = system: HOP-62 NSCLC
HOP-92 NSCLC = system: HOP-92 NSCLC
HS 578T breast = system: HS 578T breast
HT29 colon = system: HT29 colon
IGROV1 ovarian = system: IGROV1 ovarian
K-562 leukemia = system: K-562 leukemia
KM12 colon = system: KM12 colon
LOX IMVI melanoma = system: LOX IMVI melanoma
M14 melanoma = system: M14 melanoma
MALME-3M melanoma = system: MALME-3M melanoma
MCF7 breast = system: MCF7 breast
MDA-MB-231 breast = system: MDA-MB-231 breast
MDA-MB-435 = system: MDA-MB-435
MDA-N = system: MDA-N
MOLT-4 leukemia = system: MOLT-4 leukemia
NCI-H226 lung = system: NCI-H226 lung
NCI-H23 lung = system: NCI-H23 lung
NCI-H460 lung = system: NCI-H460 lung
NCI-H522 lung = system: NCI-H522 lung
NCI/ADR-RES ovarian = system: NCI/ADR-RES ovarian
OVCAR-3 ovarian = system: OVCAR-3 ovarian
OVCAR-4 ovarian = system: OVCAR-4 ovarian
OVCAR-5 ovarian = system: OVCAR-5 ovarian
OVCAR-8 ovarian = system: OVCAR-8 ovarian
PC-3 prostate = system: PC-3 prostate
RPMI-8226 leukemia = system: RPMI-8226 leukemia
RXF 393 renal = system: RXF 393 renal
SF-268 CNS = system: SF-268 CNS
SF-295 CNS = system: SF-295 CNS
SF-539 CNS = system: SF-539 CNS
SK-MEL-2 melanoma = system: SK-MEL-2 melanoma
SK-MEL-28 melanoma = system: SK-MEL-28 melanoma
SK-MEL-5 melanoma = system: SK-MEL-5 melanoma
SK-OV-3 ovarian = system: SK-OV-3 ovarian
SN12C renal = system: SN12C renal
SNB-19 CNS = system: SNB-19 CNS
SNB-75 CNS = system: SNB-75 CNS
SR leukemia = system: SR leukemia
SW-620 colon = system: SW-620 colon
T-47D breast = system: T-47D breast
TK-10 renal = system: TK-10 renal
U251 CNS = system: U251 CNS
UACC-257 melanoma = system: UACC-257 melanoma
UACC-62 melanoma = system: UACC-62 melanoma
UO-31 renal = system: UO-31 renal
HCC-2998 colon = system: HCC-2998 colon

Measured: TGI

O=C(Nc1sccc1S(=O)(=O)c1ccc(Cl)cc1)c1ccccc1
> 100 µM: 786-0 renal | A498 renal | A549 NSCLC | ACHN renal | BT-549 breast | CAKI-1 renal | CCRF-CEM leukemia | COLO 205 colon | DU-145 prostate | EKVX NSCLC | HCT-116 colon | HCT-15 colon | HL-60(TB) leukemia | HOP-62 NSCLC | HOP-92 NSCLC | HS 578T breast | HT29 colon | IGROV1 ovarian | K-562 leukemia | KM12 colon | LOX IMVI melanoma | M14 melanoma | MALME-3M melanoma | MCF7 breast | MDA-MB-231 breast | MDA-MB-435 | MDA-N | MOLT-4 leukemia | NCI-H226 lung | NCI-H23 lung | NCI-H460 lung | NCI-H522 lung | NCI/ADR-RES ovarian | OVCAR-3 ovarian | OVCAR-4 ovarian | OVCAR-5 ovarian | OVCAR-8 ovarian | PC-3 prostate | RPMI-8226 leukemia | RXF 393 renal | SF-268 CNS | SF-295 CNS | SF-539 CNS | SK-MEL-2 melanoma | SK-MEL-28 melanoma | SK-MEL-5 melanoma | SK-OV-3 ovarian | SN12C renal | SNB-19 CNS | SNB-75 CNS | SR leukemia | SW-620 colon | T-47D breast | TK-10 renal | U251 CNS | UACC-257 melanoma | UACC-62 melanoma | UO-31 renal

CCCC(=O)Nc1ccc2c(c1)CN1C(=O)c3ccccc3C1=N2
> 100 µM: 786-0 renal | A549 NSCLC | ACHN renal | BT-549 breast | CAKI-1 renal | COLO 205 colon | DU-145 prostate | HCC-2998 colon | HCT-116 colon | HCT-15 colon | HL-60(TB) leukemia | HOP-62 NSCLC | HOP-92 NSCLC | HS 578T breast | HT29 colon | IGROV1 ovarian | KM12 colon | LOX IMVI melanoma | M14 melanoma | MALME-3M melanoma | MCF7 breast | MDA-MB-231 breast | MDA-MB-435 | MDA-N | MOLT-4 leukemia | NCI-H226 lung | NCI-H23 lung | NCI-H460 lung | NCI-H522 lung | NCI/ADR-RES ovarian | OVCAR-3 ovarian | OVCAR-4 ovarian | OVCAR-5 ovarian | OVCAR-8 ovarian | PC-3 prostate | RPMI-8226 leukemia | SF-268 CNS | SF-295 CNS | SF-539 CNS | SK-MEL-2 melanoma | SK-MEL-28 melanoma | SK-MEL-5 melanoma | SK-OV-3 ovarian | SN12C renal | SNB-19 CNS | SNB-75 CNS | SR leukemia | SW-620 colon | T-47D breast | TK-10 renal | U251 CNS | UACC-257 melanoma | UACC-62 melanoma | UO-31 renal

Source: PubChem BioAssay (NCI)
